Assay results taken from ChEMBL document CHEMBL5346873, “Strategic modification of low-activity natural antimicrobial peptides confers antibacterial potential in vitro and in vivo” (Eur J Med Chem, 2023).
The source made the active and inactive calls. The calls are words filed in the database; no cut-off is given here.

What was measured:
Vibrio vulnificus [1] = assay: Antibiofilm activity against Vibrio vulnificus V2 assessed as inhibition of biofilm formation at 25 ug/ml incubated for 24 hrs by crystal violet staining based assay; type: functional, organism-based; details: dose 25.0 µg/ml
Vibrio vulnificus [2] = assay: Antibacterial activity against Vibrio vulnificus V2 incubated for 16 to 20 hrs; type: functional; details: time 16-20 hrs
Vibrio vulnificus [3] = assay: Synergistic antibacterial activity against Vibrio vulnificus in presence of meropenem by checkerboard microtiter plate assay; type: functional
Vibrio anguillarum [4] = assay: Antibacterial activity against Listonella anguillarum incubated for 16 to 20 hrs; type: functional; details: time 16-20 hrs
Escherichia coli [5] = assay: Synergistic antibacterial activity against Escherichia coli assessed as fractional inhibitory concentration in presence of meropenem by checkerboard microtiter plate assay; type: functional
Cell membrane [6] = assay: Induction of membrane deformation in Vibrio vulnificus at 1 to 2 times MIC incubated for 30 mins by SEM analysis; type: subcellular
Aeromonas hydrophila [7] = assay: Antibacterial activity against Aeromonas hydrophila incubated for 16 to 20 hrs; type: functional; details: time 16-20 hrs
Vibrio vulnificus [8] = assay: Synergistic antibacterial activity against Vibrio vulnificus in presence of doxycycline by checkerboard microtiter plate assay; type: functional
Edwardsiella tarda = assay: Antibacterial activity against Edwardsiella tarda incubated for 16 to 20 hrs; type: functional; details: time 16-20 hrs
Vibrio vulnificus [9] = assay: Antibacterial activity against Vibrio vulnificus at pH 2 to 10; type: functional, organism-based
Klebsiella pneumoniae [10] = assay: Antibacterial activity against NDM Klebsiella pneumoniae incubated for 16 to 20 hrs; type: functional; details: time 16-20 hrs
Vibrio anguillarum [11] = assay: Bactericidal activity against Listonella anguillarum incubated overnight; type: functional
Streptococcus iniae [12] = assay: Bactericidal activity against Streptococcus iniae incubated overnight; type: functional
Vibrio vulnificus [13] = assay: Synergistic antibacterial activity against Vibrio vulnificus assessed as doxycycline MIC by checkerboard microtiter plate assay; type: functional
Acinetobacter baumannii [14] = assay: Bactericidal activity against Acinetobacter baumannii incubated for overnight; type: functional
Acinetobacter baumannii [15] = assay: Synergistic antibacterial activity against Acinetobacter baumannii assessed as fractional inhibitory concentration in presence of doxycycline by checkerboard microtiter plate assay; type: functional
Streptococcus iniae [16] = assay: Additive antibacterial activity against Streptococcus iniae assessed as fractional inhibitory concentration in presence of meropenem by checkerboard microtiter plate assay; type: functional
Cell membrane [17] = assay: Induction of outer membrane lysis in Vibrio vulnificus at 100 ug/ml by NPN-dye based fluorescence analysis; type: subcellular; details: dose 100.0 µg/ml
Acinetobacter baumannii [18] = assay: Synergistic antibacterial activity against Acinetobacter baumannii assessed as doxycycline MIC by checkerboard microtiter plate assay; type: functional
Vibrio vulnificus [19] = assay: Antibacterial activity against Vibrio vulnificus in presence of 0.1 ug/ml pepsin; type: functional, organism-based
Streptococcus iniae [20] = assay: Synergistic antibacterial activity against Streptococcus iniae assessed as fractional inhibitory concentration in presence of doxycycline by checkerboard microtiter plate assay; type: functional
Streptococcus agalactiae [21] = assay: Synergistic antibacterial activity against Streptococcus agalactiae in presence of meropenem by checkerboard microtiter plate assay; type: functional
Escherichia coli [22] = assay: Synergistic antibacterial activity against Escherichia coli in presence of meropenem by checkerboard microtiter plate assay; type: functional
Acinetobacter baumannii [23] = assay: Additive antibacterial activity against Acinetobacter baumannii assessed as meropenem MIC by checkerboard microtiter plate assay; type: functional
Escherichia coli [24] = assay: Synergistic antibacterial activity against Escherichia coli assessed as meropenem MIC by checkerboard microtiter plate assay; type: functional
Klebsiella oxytoca = assay: Antibacterial activity against Klebsiella oxytoca incubated for 16 to 20 hrs; type: functional; details: time 16-20 hrs
Salmonella enterica [25] = assay: Antibacterial activity against Salmonella enterica incubated for 16 to 20 hrs; type: functional; details: time 16-20 hrs
Enterococcus faecium = assay: Bactericidal activity against Enterococcus faecium incubated overnight; type: functional
[26] = Hemolytic activity in human RBC at 100 ug/ml incubated for 1 hr; type: toxicity, cell-based, Erythrocyte; details: human red blood cells (erythrocytes), at 100 µg/mL, read-out: Activity
Aeromonas hydrophila [27] = assay: Bactericidal activity against Aeromonas hydrophila incubated overnight; type: functional
Streptococcus iniae [28] = assay: Antibacterial activity against Streptococcus iniae incubated for 16 to 20 hrs; type: functional; details: time 16-20 hrs
Vibrio vulnificus [29] = assay: Antibiofilm activity against Vibrio vulnificus V3 assessed as inhibition of biofilm formation at 25 ug/ml incubated for 24 hrs by crystal violet staining based assay; type: functional, organism-based; details: dose 25.0 µg/ml
Vibrio vulnificus [30] = assay: Antibacterial activity against Vibrio vulnificus treated with preheated compounds; type: functional, organism-based
Klebsiella pneumoniae [31] = assay: Antibacterial activity against Klebsiella pneumoniae expressing NDM-1 in presence of human serum; type: functional, organism-based
Vibrio vulnificus [32] = assay: Antibacterial activity against Vibrio vulnificus in presence of 10 ug/ml proteinase K; type: functional, organism-based
[33] = Cytotoxicity against human HaCaT cells incubated for 24 hrs by MTS assay; type: toxicity, cell-based; details: read-out: LD50
Klebsiella aerogenes [34] = assay: Synergistic antibacterial activity against Enterobacter aerogenes assessed as meropenem MIC by checkerboard microtiter plate assay; type: functional
Vibrio vulnificus [35] = assay: Antibacterial activity against Vibrio vulnificus in presence of 1 to 10 ug/ml trypsin; type: functional, organism-based
Salmonella enterica [36] = assay: Bactericidal activity against Salmonella enterica incubated overnight; type: functional
Streptococcus agalactiae [37] = assay: Synergistic antibacterial activity against Streptococcus agalactiae assessed as fractional inhibitory concentration in presence of meropenem by checkerboard microtiter plate assay; type: functional
Klebsiella aerogenes [38] = assay: Bactericidal activity against Enterobacter aerogenes incubated overnight; type: functional
Vibrio vulnificus [39] = assay: Antibacterial activity against Vibrio vulnificus 204 assessed as LPS neutralization at 0.25 to 2 times MIC measured after 1 hr by LAL assay; type: functional, organism-based
Vibrio harveyi = assay: Bactericidal activity against Vibrio harveyi incubated overnight; type: functional
Candida tropicalis = assay: Fungicidal activity against Candida tropicalis incubated overnight; type: functional
Klebsiella aerogenes [40] = assay: Synergistic antibacterial activity against Enterobacter aerogenes in presence of meropenem by checkerboard microtiter plate assay; type: functional
Escherichia coli [41] = assay: Bactericidal activity against Escherichia coli incubated overnight; type: functional
Pseudomonas aeruginosa [42] = assay: Additive antibacterial activity against Pseudomonas aeruginosa assessed as fractional inhibitory concentration in presence of meropenem by checkerboard microtiter plate assay; type: functional
Pseudomonas aeruginosa [43] = assay: Antibacterial activity against Pseudomonas aeruginosa incubated for 16 to 20 hrs; type: functional; details: time 16-20 hrs
Vibrio vulnificus [44] = assay: Antibacterial activity against Vibrio vulnificus 204 incubated for 16 to 20 hrs; type: functional; details: time 16-20 hrs
Streptococcus agalactiae [45] = assay: Synergistic antibacterial activity against Streptococcus agalactiae in presence of doxycycline by checkerboard microtiter plate assay; type: functional
Vibrio vulnificus [46] = assay: Antibiofilm activity against Vibrio vulnificus V2 assessed as inhibition of biofilm formation at 25 to 100 ug/ml incubated for 24 hrs by crystal violet staining based assay; type: functional, organism-based; details: dose 25-100 µg/ml
[47] = Cytotoxicity against human HaCaT cells incubated for 24 hrs by LDH assay; type: toxicity, cell-based; details: read-out: LD50
[48] = tested on: Staphylococcus haemolyticus; assay: Antibacterial activity against Staphylococcus haemolyticus incubated for 16 to 20 hrs; type: functional; details: time 16-20 hrs
Nakaseomyces glabratus = assay: Antifungal activity against Candida glabrata incubated for 16 to 20 hrs; type: functional; details: time 16-20 hrs
Streptococcus agalactiae [49] = assay: Synergistic antibacterial activity against Streptococcus agalactiae assessed as fractional inhibitory concentration in presence of doxycycline by checkerboard microtiter plate assay; type: functional
Vibrio vulnificus [50] = assay: Bactericidal activity against Vibrio vulnificus V2 incubated overnight; type: functional
Pseudomonas aeruginosa [51] = assay: Bactericidal activity against Pseudomonas aeruginosa incubated overnight; type: functional
Vibrio vulnificus [52] = assay: Bactericidal activity against Vibrio vulnificus 204 incubated overnight; type: functional
[53] = Dermal toxicity in BALB/c mouse assessed as morphological changes at 125 mg/kg, TOPp measured after 48 hrs; type: organism-based; details: in vivo, topical_or_ocular
Staphylococcus aureus = assay: Bactericidal activity against Staphylococcus aureus incubated for overnight; type: functional

Substance: H-FKWKSVLKGVKGFVKGYF-OH
- Activity (Vibrio vulnificus [1]): inactive
- MIC (Vibrio vulnificus [2]): 12.5 µg/mL
- MIC (Vibrio vulnificus [3]): 0.097 µg/mL
- MIC (Vibrio anguillarum [4]): 100 µg/mL
- FIC (Escherichia coli [5]): 0.07
- Activity (Cell membrane [6]): Active
- MIC (Aeromonas hydrophila [7]): > 100 µg/mL
- MIC (Vibrio vulnificus [8]): 0.097 µg/mL
- MIC (Edwardsiella tarda): 50 µg/mL
- Activity (Vibrio vulnificus [9]): Active
- MIC (Klebsiella pneumoniae [10]): 25 µg/mL
- MBC (Vibrio anguillarum [11]): 100 µg/mL
- MBC (Streptococcus iniae [12]): < 1.56 µg/mL
- MIC (Vibrio vulnificus [13]): 0.006 µg/mL
- MBC (Acinetobacter baumannii [14]): 3.12 µg/mL
- FIC (Acinetobacter baumannii [15]): 0.07
- FIC (Streptococcus iniae [16]): 0.51
- Activity (Cell membrane [17]): Active
- MIC (Acinetobacter baumannii [18]): 0.003 µg/mL
- Activity (Vibrio vulnificus [19]): Active
- FIC (Streptococcus iniae [20]): 0.04
- MIC (Streptococcus agalactiae [21]): 0.097 µg/mL
- MIC (Escherichia coli [22]): 0.097 µg/mL
- MIC (Acinetobacter baumannii [23]): 0.195 µg/mL
- MIC (Escherichia coli [24]): 0.001 µg/mL
- MIC (Klebsiella oxytoca): 25 µg/mL
- MIC (Salmonella enterica [25]): 12.5 µg/mL
- MBC (Enterococcus faecium): > 100 µg/mL
- hemolysis at 1 h, 100 ug/ml [26]: 26.5%
- MBC (Aeromonas hydrophila [27]): > 100 µg/mL
- MIC (Streptococcus iniae [28]): < 1.56 µg/mL
- Activity (Vibrio vulnificus [29]): inactive
- Activity (Vibrio vulnificus [30]): Active
- Activity (Klebsiella pneumoniae [31]): Active
- Activity (Vibrio vulnificus [32]): inactive
- CC50 at 24 h [33]: > 100 µg/mL
- MIC (Klebsiella aerogenes [34]): 0.003 µg/mL
- Activity (Vibrio vulnificus [35]): Active
- MBC (Salmonella enterica [36]): 12.5 µg/mL
- FIC (Streptococcus agalactiae [37]): 0.07
- MBC (Klebsiella aerogenes [38]): 12.5 µg/mL
- Activity (Vibrio vulnificus [39]): Active
- MBC (Vibrio harveyi): > 100 µg/mL
- MFC (Candida tropicalis): 100 µg/mL
- MIC (Klebsiella aerogenes [40]): 0.195 µg/mL
- MBC (Escherichia coli [41]): 6.25 µg/mL
- FIC (Pseudomonas aeruginosa [42]): 0.75
- MIC (Pseudomonas aeruginosa [43]): 25 µg/mL
- MIC (Vibrio vulnificus [44]): 6.25 µg/mL
- MIC (Streptococcus agalactiae [45]): 0.097 µg/mL
- Activity (Vibrio vulnificus [46]): Active
- CC50 at 24 h [47]: > 100 µg/mL
- MIC [48]: < 1.56 µg/mL
- MIC (Nakaseomyces glabratus): > 100 µg/mL
- FIC (Streptococcus agalactiae [49]): 0.14
- MBC (Vibrio vulnificus [50]): 12.5 µg/mL
- MBC (Pseudomonas aeruginosa [51]): 50 µg/mL
- MBC (Vibrio vulnificus [52]): 6.25 µg/mL
- Activity [53]: Non-Toxic
- MBC (Staphylococcus aureus): 50 µg/mL
